Measured values reported in ChEMBL document CHEMBL1148480, “Structure-activity studies of orexin a and orexin B at the human orexin 1 and orexin 2 receptors led to orexin 2 receptor selective and orexin 1 receptor preferring ligands” (J Med Chem, 2004).
Residues, ends and D or L forms follow the SMILES beside them.

Legend:
Orexin receptor type 2 = target: T1, Orexin receptor type 2 (Homo sapiens, UniProt O43614); test: Effective agonist concentration to the human Orexin receptor type 2 was determined using the Xlfit program; type: functional
T1 sequence (O43614 whole entry): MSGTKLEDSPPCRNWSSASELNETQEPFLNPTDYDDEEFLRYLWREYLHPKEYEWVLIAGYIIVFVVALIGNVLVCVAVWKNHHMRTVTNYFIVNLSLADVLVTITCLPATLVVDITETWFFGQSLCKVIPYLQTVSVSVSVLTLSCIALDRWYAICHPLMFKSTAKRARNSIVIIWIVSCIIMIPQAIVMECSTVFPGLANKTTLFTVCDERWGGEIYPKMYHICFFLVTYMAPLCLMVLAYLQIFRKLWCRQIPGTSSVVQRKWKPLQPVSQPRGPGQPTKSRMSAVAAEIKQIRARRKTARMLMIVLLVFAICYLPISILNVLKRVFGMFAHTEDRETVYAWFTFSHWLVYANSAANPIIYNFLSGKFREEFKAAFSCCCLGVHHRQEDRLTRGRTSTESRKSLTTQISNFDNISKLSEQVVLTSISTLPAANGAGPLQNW

[1] = Ratio of orexin-1 receptor to orexin-2 receptor in human

Row | Compound | EC50 (Orexin receptor type 2) | Ratio [1]
1 | CC[C@H](C)[C@H](NC(=O)CNC(=O)[C@H](C)NC(=O)[C@H](C)NC(=O)[C@H](Cc1c[nH]cn1)NC(=O)[C@H](CC(N)=O)NC(=O)CNC(=O)[C@H](CO)NC(=O)[C@H](C)NC(=O)[C@H](CCC(N)=O)NC(=O)[C@H](CC(C)C)NC(=O)[C@H](CC(C)C)NC(=O)[C@H](CCCN=C(N)N)NC(=O)[C@H](CCC(N)=O)NC(=O)[C@H](CC(C)C)NC(=O)[C@H](CCCN=C(N)N)NC(=O)CNC(=O)[C@@H]1CCCN1C(=O)[C@H](CC(C)C)NC(=O)CN)C(=O)N[C@@H](CC(C)C)C(=O)N[C@H](C(=O)N[C@@H](CCSC)C(=O)O)[C@@H](C)O (H-GLPGRLQRLLQASGNHAAGILTM-OH) | 0.16 µM | 7.5
2 | CC[C@H](C)[C@H](NC(=O)CNC(=O)[C@H](C)NC(=O)[C@H](C)NC(=O)[C@H](Cc1c[nH]cn1)NC(=O)[C@H](CC(N)=O)NC(=O)CNC(=O)[C@H](C)NC(=O)CNC(=O)[C@H](Cc1c[nH]cn1)NC(=O)[C@H](CC(C)C)NC(=O)[C@H](CC(C)C)NC(=O)[C@H](CCC(=O)O)NC(=O)[C@H](Cc1ccc(O)cc1)NC(=O)[C@H](CC(C)C)NC(=O)[C@H](CCCN=C(N)N)NC(=O)[C@H](CS)NC(=O)[C@H](CO)NC(=O)[C@H](CS)NC(=O)[C@@H](NC(=O)[C@H](CCCCN)NC(=O)[C@H](CCC(N)=O)NC(=O)[C@H](CCCN=C(N)N)NC(=O)[C@H](CS)NC(=O)[C@H](CS)NC(=O)[C@H](CC(=O)O)NC(=O)[C@@H]1CCCN1)[C@@H](C)O)C(=O)N[C@@H](CC(C)C)C(=O)N[C@H](C(=O)N[C@@H](CC(C)C)C(=O)O)[C@@H](C)O (H-PDCCRQKTCSCRLYELLHGAGNHAAGILTL-OH) | 0.4 µM | 1.6
3 | CC[C@H](C)[C@H](NC(=O)CNC(=O)[C@H](C)NC(=O)[C@H](C)NC(=O)[C@H](Cc1c[nH]cn1)NC(=O)[C@H](CC(N)=O)NC(=O)CNC(=O)[C@H](CO)NC(=O)[C@H](C)NC(=O)[C@H](CCC(N)=O)NC(=O)[C@H](CC(C)C)NC(=O)[C@H](CC(C)C)NC(=O)[C@H](CCCN=C(N)N)NC(=O)[C@H](CCC(N)=O)NC(=O)[C@H](CC(C)C)NC(=O)[C@H](CCCN=C(N)N)NC(=O)[C@@H]1CCCN1C(=O)[C@H](CCC(N)=O)NC(=O)[C@H](CC(C)C)NC(=O)CN)C(=O)N[C@@H](CC(C)C)C(=O)N[C@H](C(=O)N[C@@H](CCSC)C(=O)O)[C@@H](C)O (H-GLQPRLQRLLQASGNHAAGILTM-OH) | 0.19 µM | 23.5
4 | CC[C@H](C)[C@H](NC(=O)CNC(=O)[C@H](C)NC(=O)[C@H](C)NC(=O)[C@H](Cc1c[nH]cn1)NC(=O)[C@H](CC(N)=O)NC(=O)CNC(=O)[C@H](C)NC(=O)CNC(=O)[C@H](Cc1c[nH]cn1)NC(=O)[C@H](CC(C)C)NC(=O)[C@H](CC(C)C)NC(=O)[C@H](CCC(=O)O)NC(=O)[C@H](Cc1ccc(O)cc1)NC(=O)[C@H](CC(C)C)NC(=O)[C@H](CCCN=C(N)N)NC(=O)[C@H](CS)NC(=O)[C@H](CO)NC(=O)[C@H](CS)NC(=O)[C@@H](NC(=O)[C@H](CCCCN)NC(=O)[C@H](CCC(N)=O)NC(=O)[C@H](CCCN=C(N)N)NC(=O)[C@H](CS)NC(=O)[C@@H](N)CS)[C@@H](C)O)C(=O)N[C@@H](CC(C)C)C(=O)N[C@H](C(=O)N[C@@H](CC(C)C)C(=O)O)[C@@H](C)O (H-CCRQKTCSCRLYELLHGAGNHAAGILTL-OH) | 0.79 µM | 1
5 | CC[C@H](C)[C@H](NC(=O)CNC(=O)[C@H](C)NC(=O)[C@H](C)NC(=O)[C@H](Cc1c[nH]cn1)NC(=O)[C@H](CC(N)=O)NC(=O)CNC(=O)[C@H](C)NC(=O)CNC(=O)[C@H](Cc1c[nH]cn1)NC(=O)[C@H](CC(C)C)NC(=O)[C@H](CC(C)C)NC(=O)[C@H](CCC(=O)O)NC(=O)[C@H](Cc1ccc(O)cc1)NC(=O)[C@H](CC(C)C)NC(=O)[C@H](CCCN=C(N)N)NC(=O)[C@H](CSSC[C@H](NC(=O)[C@@H](N)CO)C(=O)N[C@@H](CCCN=C(N)N)C(=O)N[C@@H](CC(C)C)C(=O)N[C@@H](Cc1ccc(O)cc1)C(=O)N[C@@H](CCC(=O)O)C(=O)N[C@@H](CC(C)C)C(=O)N[C@@H](CC(C)C)C(=O)N[C@@H](Cc1c[nH]cn1)C(=O)NCC(=O)N[C@@H](C)C(=O)NCC(=O)N[C@@H](CC(N)=O)C(=O)N[C@@H](Cc1c[nH]cn1)C(=O)N[C@@H](C)C(=O)N[C@@H](C)C(=O)NCC(=O)N[C@H](C(=O)N[C@@H](CC(C)C)C(=O)N[C@H](C(=O)N[C@@H](CC(C)C)C(=O)O)[C@@H](C)O)[C@@H](C)CC)NC(=O)[C@@H](N)CO)C(=O)N[C@@H](CC(C)C)C(=O)N[C@H](C(=O)N[C@@H](CC(C)C)C(=O)O)[C@@H](C)O | – | 2.9
6 | CC[C@H](C)[C@H](NC(=O)CNC(=O)[C@H](C)NC(=O)[C@H](C)NC(=O)[C@H](Cc1c[nH]cn1)NC(=O)[C@H](CC(N)=O)NC(=O)CNC(=O)[C@H](CO)NC(=O)[C@H](C)NC(=O)[C@H](CCC(N)=O)NC(=O)[C@H](CC(C)C)NC(=O)[C@H](CC(C)C)NC(=O)[C@H](CCCN=C(N)N)NC(=O)[C@H](CCC(N)=O)NC(=O)[C@H](CC(C)C)NC(=O)[C@H](CCCN=C(N)N)NC(=O)CNC(=O)[C@H](CCC(N)=O)NC(=O)[C@H](CC(C)C)NC(=O)CN)C(=O)N[C@@H](CC(C)C)C(=O)N1CCC[C@H]1C(=O)N[C@@H](CCSC)C(=O)O (H-GLQGRLQRLLQASGNHAAGILPM-OH) | – | > 375
7 | CC[C@H](C)[C@H](NC(=O)CNC(=O)[C@H](C)NC(=O)[C@H](C)NC(=O)[C@H](Cc1c[nH]cn1)NC(=O)[C@H](CC(N)=O)NC(=O)CNC(=O)[C@H](CO)NC(=O)[C@H](C)NC(=O)[C@H](CCC(N)=O)NC(=O)[C@H](CC(C)C)NC(=O)[C@H](CC(C)C)NC(=O)[C@H](CCCN=C(N)N)NC(=O)[C@H](CCC(N)=O)NC(=O)[C@H](CC(C)C)NC(=O)[C@H](CCCN=C(N)N)NC(=O)CNC(=O)[C@@H](N)CCC(N)=O)C(=O)N[C@@H](CC(C)C)C(=O)N[C@H](C(=O)N[C@@H](CCSC)C(=O)O)[C@@H](C)O (H-QGRLQRLLQASGNHAAGILTM-OH) | – | 18.2
8 | CC[C@H](C)[C@H](NC(=O)CNC(=O)[C@H](C)NC(=O)[C@H](C)NC(=O)[C@H](Cc1c[nH]cn1)NC(=O)[C@H](CC(N)=O)NC(=O)CNC(=O)[C@H](C)NC(=O)CNC(=O)[C@H](Cc1c[nH]cn1)NC(=O)[C@H](CC(C)C)NC(=O)[C@H](CC(C)C)NC(=O)[C@H](CCC(=O)O)NC(=O)[C@H](Cc1ccc(O)cc1)NC(=O)[C@H](CC(C)C)NC(=O)[C@H](CCCN=C(N)N)NC(=O)[C@H](CS)NC(=O)[C@H](CO)NC(=O)[C@H](CS)NC(=O)[C@@H](NC(=O)[C@H](CCCCN)NC(=O)[C@H](CCC(N)=O)NC(=O)[C@@H](N)CCCN=C(N)N)[C@@H](C)O)C(=O)N[C@@H](CC(C)C)C(=O)N[C@H](C(=O)N[C@@H](CC(C)C)C(=O)O)[C@@H](C)O (H-RQKTCSCRLYELLHGAGNHAAGILTL-OH) | – | 2.3

Continued, values first:

Row | EC50 (Orexin receptor type 2) | Ratio [1] | Compound
9 | 0.83 µM | 8.9 | CC[C@H](C)[C@H](NC(=O)CNC(=O)[C@H](C)NC(=O)[C@H](C)NC(=O)[C@H](Cc1c[nH]cn1)NC(=O)[C@H](CC(N)=O)NC(=O)CNC(=O)[C@H](CO)NC(=O)[C@H](C)NC(=O)[C@H](CCC(N)=O)NC(=O)[C@H](CC(C)C)NC(=O)[C@H](CC(C)C)NC(=O)[C@H](CCCN=C(N)N)NC(=O)[C@H](CCC(N)=O)NC(=O)[C@H](CC(C)C)NC(=O)[C@H](CCCN=C(N)N)NC(=O)CNC(=O)[C@H](CCC(N)=O)NC(=O)[C@H](C)NC(=O)CN)C(=O)N[C@@H](CC(C)C)C(=O)N[C@H](C(=O)N[C@@H](CCSC)C(=O)O)[C@@H](C)O (H-GAQGRLQRLLQASGNHAAGILTM-OH)
10 | – | 6.8 | CC[C@H](C)[C@H](NC(=O)CNC(=O)[C@H](C)NC(=O)[C@H](C)NC(=O)[C@H](Cc1c[nH]cn1)NC(=O)[C@H](C)NC(=O)CNC(=O)[C@H](CO)NC(=O)[C@H](C)NC(=O)[C@H](CCC(N)=O)NC(=O)[C@H](CC(C)C)NC(=O)[C@H](CC(C)C)NC(=O)[C@H](CCCN=C(N)N)NC(=O)[C@H](CCC(N)=O)NC(=O)[C@H](CC(C)C)NC(=O)[C@H](CCCN=C(N)N)NC(=O)CNC(=O)[C@H](CCC(N)=O)NC(=O)[C@H](CC(C)C)NC(=O)CN)C(=O)N[C@@H](CC(C)C)C(=O)N[C@H](C(=O)N[C@@H](CCSC)C(=O)O)[C@@H](C)O (stereo in doubt; form 2)
11 | – | 5.5 | CC[C@H](C)[C@H](NC(=O)CNC(=O)[C@H](C)NC(=O)[C@H](C)NC(=O)[C@H](Cc1c[nH]cn1)NC(=O)[C@H](CC(N)=O)NC(=O)CNC(=O)[C@H](CO)NC(=O)[C@H](C)NC(=O)[C@H](CCC(N)=O)NC(=O)[C@H](CC(C)C)NC(=O)[C@H](CC(C)C)NC(=O)[C@H](CCCN=C(N)N)NC(=O)[C@H](CCC(N)=O)NC(=O)[C@H](CC(C)C)NC(=O)[C@H](CCCN=C(N)N)NC(=O)CNC(=O)[C@H](CCC(N)=O)NC(=O)[C@H](CC(C)C)NC(=O)[C@H](C)N)C(=O)N[C@@H](CC(C)C)C(=O)N[C@H](C(=O)N[C@@H](CCSC)C(=O)O)[C@@H](C)O (H-ALQGRLQRLLQASGNHAAGILTM-OH)
12 | – | > 65 | CC[C@H](C)[C@H](NC(=O)CNC(=O)[C@H](C)NC(=O)[C@H](C)NC(=O)[C@H](Cc1c[nH]cn1)NC(=O)[C@H](CC(N)=O)NC(=O)CNC(=O)[C@H](CO)NC(=O)[C@H](C)NC(=O)[C@H](CCC(N)=O)NC(=O)[C@H](CC(C)C)NC(=O)[C@H](CC(C)C)NC(=O)[C@H](CCCN=C(N)N)NC(=O)[C@H](CCC(N)=O)NC(=O)[C@H](CC(C)C)NC(=O)[C@H](CCCN=C(N)N)NC(=O)CNC(=O)[C@H](CCC(N)=O)NC(=O)[C@H](CC(C)C)NC(=O)CN)C(=O)N[C@@H](C)C(=O)N[C@H](C(=O)N[C@@H](CCSC)C(=O)O)[C@@H](C)O (H-GLQGRLQRLLQASGNHAAGIATM-OH)
